Target: T1, human cathepsin S (CatS) (Homo sapiens, UniProt P25774)
T1 construct: made in house; host or cells: baculovirus system (insect cells)
Assay: Recombinant human cathepsin S (CatS) fluorogenic substrate inhibition assay
Assay type: biochemical
Conditions: recombinant human CatS, 10 μM Z-Valine-Valine-Arginine-AMC, pH 5.0; average of results obtained; read-out: CatS IC50
Description: Recombinant human cathepsin S (CatS) was expressed in the baculovirus system and purified in one step with a thiopropyl-sepharose column. […] The assay is run in 150 mM sodium acetate pH 5.0 containing 1.5 mM DTT and 150 mM NaCl. […] Measurements are taken every min for 20 min. The rate is calculated from the slope of the increase in fluorescence and the percent inhibition is calculated from this.

T1 sequence (P25774 115-331): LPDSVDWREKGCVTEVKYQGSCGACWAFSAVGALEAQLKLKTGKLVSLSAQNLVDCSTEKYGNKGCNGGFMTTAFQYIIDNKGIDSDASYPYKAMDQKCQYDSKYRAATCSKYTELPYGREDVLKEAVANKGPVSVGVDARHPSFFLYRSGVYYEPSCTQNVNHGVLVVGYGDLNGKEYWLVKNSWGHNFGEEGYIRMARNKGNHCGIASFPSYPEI

SMILES | IC50 [nM]
Cc1ccc(C(=O)Nc2cc(-c3nn(CCCN4CCN(c5cccc(Cl)c5)CC4)c4c3CN(S(C)(=O)=O)CC4)ccc2Cl)cc1 [Example 198, N-[2-Chloro-5-(1-{3-[4-(3-chloro-phenyl)-piperazin-1-yl]-propyl}-5-methanesulfonyl-4,5,6,7-tetrahydro-1H-pyrazolo[4,3-c]pyridin-3-yl)-phenyl]-4-methyl-benzamide] | 410
CN(C)c1ccc(C(=O)Nc2cc(-c3nn(CCCN4CCN(c5cccc(Cl)c5)CC4)c4c3CN(S(C)(=O)=O)CC4)ccc2Cl)cc1 [Example 199, N-[2-Chloro-5-(1-{3-[4-(3-chloro-phenyl)-piperazin-1-yl]-propyl}-5-methanesulfonyl-4,5,6,7-tetrahydro-1H-pyrazolo[4,3-c]pyridin-3-yl)-phenyl]-4-dimethylamino-benzamide] | 470
CS(=O)(=O)N1CCc2c(c(-c3ccc(Cl)c(NC(=O)c4ccc(Cl)cc4)c3)nn2CCCN2CCN(c3cccc(Cl)c3)CC2)C1 [Example 200, 4-Chloro-N-[2-chloro-5-(1-{3-[4-(3-chloro-phenyl)-piperazin-1-yl]-propyl}-5-methanesulfonyl-4,5,6,7-tetrahydro-1H-pyrazolo[4,3-c]pyridin-3-yl)-phenyl]-benzamide] | 600
CS(=O)(=O)N1CCc2c(c(-c3ccc(Cl)c(NC(=O)c4ccc(C#N)cc4)c3)nn2CCCN2CCN(c3cccc(Cl)c3)CC2)C1 [Example 201, N-[2-Chloro-5-(1-{3-[4-(3-chloro-phenyl)-piperazin-1-yl]-propyl}-5-methanesulfonyl-4,5,6,7-tetrahydro-1H-pyrazolo[4,3-c]pyridin-3-yl)-phenyl]-4-cyano-benzamide] | 580
CS(=O)(=O)N1CCc2c(c(-c3ccc(Cl)c(NS(=O)(=O)Cc4ccccc4)c3)nn2CCCN2CCN(c3cccc(Cl)c3)CC2)C1 [Example 202, N-[2-Chloro-5-(1-{3-[4-(3-chloro-phenyl)-piperazin-1-yl]-propyl}-5-methanesulfonyl-4,5,6,7-tetrahydro-1H-pyrazolo[4,3-c]pyridin-3-yl)-phenyl]-C-phenyl-methanesulfonamide] | 680
CS(=O)(=O)N1CCc2c(c(-c3ccc(Cl)c(NS(=O)(=O)/C=C/c4ccccc4)c3)nn2CCCN2CCN(c3cccc(Cl)c3)CC2)C1 [Example 203, 2-Phenyl-ethenesulfonic acid [2-chloro-5-(1-{3-[4-(3-chloro-phenyl)-piperazin-1-yl]-propyl}-5-methanesulfonyl-4,5,6,7-tetrahydro-1H-pyrazolo[4,3-c]pyridin-3-yl)-phenyl]-amide] | 690
CS(=O)(=O)N1CCc2c(c(-c3ccc(Cl)c(NS(=O)(=O)c4ccccc4)c3)nn2CCCN2CCN(c3cccc(Cl)c3)CC2)C1 [Example 204, N-[2-Chloro-5-(1-{3-[4-(3-chloro-phenyl)-piperazin-1-yl]-propyl}-5-methanesulfonyl-4,5,6,7-tetrahydro-1H-pyrazolo[4,3-c]pyridin-3-yl)-phenyl]-benzenesulfonamide] | 700

Second part, the compound after the results:

IC50 [nM] | SMILES
1520 | CN(C)CCC(=O)NCc1cc(-c2nn(CCCN3CCC(N4CCCC4=O)CC3)c3c2CN(S(C)(=O)=O)CC3)ccc1C(F)(F)F [Example 181, 3-Dimethylamino-N-[5-(5-methanesulfonyl-1-{3-[4-(2-oxo-pyrrolidin-1-yl)-piperidin-1-yl]-propyl}-4,5,6,7-tetrahydro-1H-pyrazolo[4,3-c]pyridin-3-yl)-2-trifluoromethyl-benzyl]-propionamide]
900 | CS(=O)(=O)N1CCc2c(c(-c3ccc(C(F)(F)F)c(CNC(=O)CN4CCCC4=O)c3)nn2CCCN2CCC(N3CCCC3=O)CC2)C1 [Example 182, N-[5-(5-Methanesulfonyl-1-{3-[4-(2-oxo-pyrrolidin-1-yl)-piperidin-1-yl]-propyl}-4,5,6,7-tetrahydro-1H-pyrazolo[4,3-c]pyridin-3-yl)-2-trifluoromethyl-benzyl]-2-(2-oxo-pyrrolidin-1-yl)-acetamide]
800 | CS(=O)(=O)N1CCc2c(c(-c3ccc(C(F)(F)F)c(CNC(=O)CN4CCCC4)c3)nn2CCCN2CCC(N3CCCC3=O)CC2)C1 [Example 183, N-[5-(5-Methanesulfonyl-1-{3-[4-(2-oxo-pyrrolidin-1-yl)-piperidin-1-yl]-propyl}-4,5,6,7-tetrahydro-1H-pyrazolo[4,3-c]pyridin-3-yl)-2-trifluoromethyl-benzyl]-2-pyrrolidin-1-yl-acetamide]
820 | CS(=O)(=O)N1CCc2c(c(-c3ccc(C(F)(F)F)c(CNC(=O)CN4CCC(O)C4)c3)nn2CCCN2CCC(N3CCCC3=O)CC2)C1 (stereo not shown) [Example 184, 2-(3-Hydroxy-pyrrolidin-1-yl)-N-[5-(5-methanesulfonyl-1-{3-[4-(2-oxo-pyrrolidin-1-yl)-piperidin-1-yl]-propyl}-4,5,6,7-tetrahydro-1H-pyrazolo[4,3-c]pyridin-3-yl)-2-trifluoromethyl-benzyl]-acetamide]
1800 | CS(=O)(=O)N1CCc2c(c(-c3ccc(C(F)(F)F)c(CNC(=O)CO)c3)nn2CCCN2CCC(N3CCCC3=O)CC2)C1 [Example 187, 2-Hydroxy-N-[5-(5-methanesulfonyl-1-{3-[4-(2-oxo-pyrrolidin-1-yl)-piperidin-1-yl]-propyl}-4,5,6,7-tetrahydro-1H-pyrazolo[4,3-c]pyridin-3-yl)-2-trifluoromethyl-benzyl]-acetamide]
590 | CS(=O)(=O)N1CCc2c(c(-c3ccc(C(F)(F)F)c(CNC(=O)Cn4cncn4)c3)nn2CCCN2CCC(N3CCCC3=O)CC2)C1 [Example 188, N-[5-(5-Methanesulfonyl-1-{3-[4-(2-oxo-pyrrolidin-1-yl)-piperidin-1-yl]-propyl}-4,5,6,7-tetrahydro-1H-pyrazolo[4,3-c]pyridin-3-yl)-2-trifluoromethyl-benzyl]-2-[1,2,4]triazol-1-yl-acetamide]
510 | CS(=O)(=O)N1CCc2c(c(-c3ccc(C(F)(F)F)c(CNC(=O)Cc4ccncc4)c3)nn2CCCN2CCC(N3CCCC3=O)CC2)C1 [Example 189, N-[5-(5-Methanesulfonyl-1-{3-[4-(2-oxo-pyrrolidin-1-yl)-piperidin-1-yl]-propyl}-4,5,6,7-tetrahydro-1H-pyrazolo[4,3-c]pyridin-3-yl)-2-trifluoromethyl-benzyl]-2-pyridin-4-yl-acetamide]
1700 | Cn1ccnc1C(=O)NCc1cc(-c2nn(CC(O)CN3CCC(N4CCCC4=O)CC3)c3c2CN(S(C)(=O)=O)CC3)ccc1C(F)(F)F (stereo not shown) [Example 190, 1-Methyl-1H-imidazole-2-carboxylic acid 5-(1-{2-hydroxy-3-[4-(2-oxo-pyrrolidin-1-yl)-piperidin-1-yl]-propyl}-5-methanesulfonyl-4,5,6,7-tetrahydro-1H pyrazolo[4,3-c]pyridin-3-yl)-2-trifluoromethyl-benzylamide]
2520 | CN(C)Cc1cc(-c2nn(CCCN3CCC(N4CCCC4=O)CC3)c3c2CN(S(C)(=O)=O)CC3)ccc1C(F)(F)F [Example 206, 1-(1-{3-[3-(3-Dimethylaminomethyl-4-trifluoromethyl-phenyl)-5-methanesulfonyl-4,5,6,7-tetrahydro-pyrazolo[4,3-c]pyridin-1-yl]-propyl}-piperidin-4-yl)-pyrrolidin-2-one]

Reference: patent US20080269241A1, “BICYCLIC AMINOPROPYL TETRAHYDRO-PYRAZOLO-PYRIDINE MODULATORS OF CATHEPSIN S” (priority 2007, published 2008)
